Assay results from patent publication US20230279355A1, “METHOD FOR THE IN VITRO OR EX VIVO AMPLIFICATION OF STEM CELLS OF BROWN OR BEIGE ADIPOCYTES” (CENTRE NATIONAL DE LA RECHERCHE SCIENTIFIQUE, priority 2020, published 2023).

Legend:
hASCs = experiment: differentiation of hASCs into adipocytes (PLIN1, UCP1 expression); assay type: cell-based, human
Description: In order to determine the differentiation medium, different media were tested. These media were enriched with adipogenic factors then tested for the differentiation of the hASCs. […] It should also be noted that the medium n° 5 is an option to the EGM+ which has not been pursued further.

[1] = test system: hECs (endothelial cells of human adipose tissue)
Description: In order to determine the proliferation medium, five mediums, which are generally marketed for the proliferation of human endothelial cells, were tested.

cells in suspension = conditions: reported; cited from earlier work
UCP1 = conditions: described in the literature; cited from earlier work

For NC(=O)c1ccc(-c2nc(-c3ccc4c(c3)OCO4)c(-c3ccccn3)[nH]2)cc1 [SB431542], the “expression of UCP1” value (hASCs; addition of SB431542 and maintenance of Rosiglitazone) was “allows the expression of UCP1”, the “differentiation into adipocytes (PLIN1)” value (hASCs; dexamethasone and IBMX removed after the first three days, SB431542 added) was “allows restoring the differentiation” and the “viability of hECs” value [1] was “no consequence upon the viability of hECs”.

For C[C@@H](N)[C@H]1CC[C@H](C(=O)Nc2ccncc2)CC1 [Y27632], the “cell viability in suspension” value (cells in suspension) is given as “increasing the cell viability in suspension”.

In the case of C[C@]12CCC(=O)C=C1CC[C@@H]1[C@@H]2[C@@H](O)C[C@@]2(C)[C@H]1CC[C@]2(O)C(=O)CO [hydrocortisone, Hydrocortisone], the “expression of UCP1” value (UCP1) is given as “able to inhibit the expression of UCP1”.
